#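 Interpolation was linear, between the two tested concentrations surrounding the appropriate level; five concentrations were tested over 48 hours in 96-well plates. Abbreviation: GI50, concentration required for 50% inhibition of growth.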 Activity calls are given as the source filed them. Cut-off read from the data, not from the text of the source: active = GI50 up to about 1.1 µM and inactive = higher.
# Columns and labels:
# Assay in all cases: NCI-60 cell line screen, 48 h
# [1] = system: SR
# [2] = system: HOP-62
# [3] = system: UACC-257
# [4] = system: SK-MEL-28
# [5] = system: PC-3
# [6] = system: COLO 205
# [7] = system: Hs-578T
# [8] = system: NCI/ADR-RES
# [9] = system: M14
# [10] = system: BT-549
# [11] = system: SN12C
# [12] = system: SF-539
# [13] = system: EKVX
# [14] = system: LOX IMVI
# [15] = system: HL-60
# [16] = system: SNB-75
# [17] = system: IGROV-1
# [18] = system: UACC-62
# [19] = system: DU-145
# [20] = system: MDA-MB-231
# [21] = system: OVCAR-5
# [22] = system: NCI-H522
# [23] = system: SK-OV-3
# [24] = system: HCT-15
# [25] = system: SK-MEL-2
# [26] = system: MOLT-4
# [27] = system: HCT-116
# [28] = system: MCF7
# [29] = system: HOP-92
# [30] = system: SF-268
# [31] = system: OVCAR-4
# [32] = system: NCI-H23
# [33] = system: U-251
# [34] = system: UO-31
# [35] = system: RXF 393
# [36] = system: OVCAR-3
# [37] = system: HT-29
# [38] = system: Malme-3M
# [39] = system: OVCAR-8
# [40] = system: SK-MEL-5
# [41] = system: A549
# [42] = system: 786-0
# [43] = system: NCI-H226
# [44] = system: KM12
# [45] = system: ACHN
# [46] = system: MDA-MB-435
# [47] = system: K562
# [48] = system: T47D
# [49] = system: CAKI-1
# [50] = system: TK-10
# [51] = system: SNB-19
# [52] = system: SW-620
# [53] = system: SF-295
# [54] = system: NCI-H460
# [55] = system: RPMI-8226
# [56] = system: MDA-N
# [57] = system: A498
# [58] = system: HCC 2998
# [59] = system: CCRF-CEM
structure (smiles),measurement,setting,value
COc1ccc2c(c1)[n+]([O-])c1cc(C#N)ccc1[n+]2[O-],GI50,[1],4.08 µM (inactive)
same,GI50,[2],2.11 µM (inactive)
same,GI50,[3],3.74 µM (inactive)
same,GI50,[4],12.9 µM (inactive)
same,GI50,[5],2.43 µM (inactive)
same,GI50,[6],0.586 µM (active)
same,GI50,[7],2.07 µM (inactive)
same,GI50,[8],15.5 µM (inactive)
same,GI50,[9],0.33 µM (active)
same,GI50,[10],10.2 µM (inactive)
same,GI50,[11],3.17 µM (inactive)
same,GI50,[12],3.41 µM (inactive)
same,GI50,[13],24 µM (inactive)
same,GI50,[14],3.3 µM (inactive)
same,GI50,[15],4.63 µM (inactive)
same,GI50,[16],4.41 µM (inactive)
same,GI50,[17],4.88 µM (inactive)
same,GI50,[18],2.94 µM (inactive)
same,GI50,[19],1.1 µM (active)
same,GI50,[20],12.5 µM (inactive)
same,GI50,[21],15.2 µM (inactive)
same,GI50,[22],5.62 µM (inactive)
same,GI50,[23],18.5 µM (inactive)
same,GI50,[24],0.723 µM
same,GI50,[25],4.27 µM (inactive)
same,GI50,[26],0.316 µM (active)
same,GI50,[27],11.1 µM (inactive)
same,GI50,[28],4.84 µM (inactive)
same,GI50,[29],6.56 µM (inactive)
same,GI50,[30],13.3 µM (inactive)
same,GI50,[31],12.4 µM (inactive)
same,GI50,[32],0.849 µM (active)
same,GI50,[33],3.72 µM (inactive)
same,GI50,[34],5.31 µM (inactive)
same,GI50,[35],47.2 µM (inactive)
same,GI50,[36],5.83 µM (inactive)
same,GI50,[37],2.87 µM (inactive)
same,GI50,[38],2.58 µM (inactive)
same,GI50,[39],15.4 µM (inactive)
same,GI50,[40],0.893 µM (active)
same,GI50,[41],0.378 µM (active)
same,GI50,[42],13.6 µM (inactive)
same,GI50,[43],3.78 µM (inactive)
same,GI50,[44],2.38 µM (inactive)
same,GI50,[45],1.69 µM (inactive)
same,GI50,[46],2.25 µM (inactive)
same,GI50,[47],6.76 µM (inactive)
same,GI50,[48],11.7 µM (inactive)
same,GI50,[49],4.09 µM (inactive)
same,GI50,[50],3.21 µM (inactive)
same,GI50,[51],7.87 µM (inactive)
same,GI50,[52],4.34 µM (inactive)
same,GI50,[53],0.767 µM (active)
same,GI50,[54],0.547 µM (active)
CC(C)=CC(C)C(C(O)CCC1(c2ccoc2)OCCO1)S(=O)(=O)c1ccccc1 (stereo not given),GI50,[2],> 100 µM (inactive)
same,GI50,[3],> 100 µM (inactive)
same,GI50,[4],> 100 µM (inactive)
same,GI50,[5],> 100 µM (inactive)
same,GI50,[6],> 100 µM (inactive)
same,GI50,[8],91.6 µM (inactive)
same,GI50,[9],> 100 µM (inactive)
same,GI50,[10],> 100 µM (inactive)
same,GI50,[55],> 100 µM (inactive)
same,GI50,[11],> 100 µM (inactive)
same,GI50,[12],> 100 µM (inactive)
same,GI50,[13],> 100 µM (inactive)
same,GI50,[14],> 100 µM (inactive)
same,GI50,[16],> 100 µM (inactive)
same,GI50,[17],54.5 µM (inactive)
same,GI50,[20],> 100 µM (inactive)
same,GI50,[21],> 100 µM (inactive)
same,GI50,[22],> 100 µM (inactive)
same,GI50,[23],> 100 µM (inactive)
same,GI50,[24],> 100 µM
same,GI50,[25],> 100 µM (inactive)
same,GI50,[56],> 100 µM (inactive)
same,GI50,[57],> 100 µM (inactive)
same,GI50,[27],> 100 µM (inactive)
same,GI50,[58],> 100 µM (inactive)
same,GI50,[28],> 100 µM (inactive)
same,GI50,[30],> 100 µM (inactive)
same,GI50,[31],> 100 µM (inactive)
same,GI50,[32],> 100 µM (inactive)
same,GI50,[33],> 100 µM (inactive)
same,GI50,[34],> 100 µM (inactive)
same,GI50,[35],> 100 µM (inactive)
same,GI50,[36],> 100 µM (inactive)
same,GI50,[38],> 100 µM (inactive)
same,GI50,[39],> 100 µM (inactive)
same,GI50,[40],> 100 µM (inactive)
same,GI50,[41],> 100 µM (inactive)
same,GI50,[42],> 100 µM (inactive)
same,GI50,[43],> 100 µM (inactive)
same,GI50,[59],> 100 µM (inactive)
same,GI50,[44],> 100 µM (inactive)
same,GI50,[45],> 100 µM (inactive)
same,GI50,[46],> 100 µM (inactive)
same,GI50,[48],> 100 µM (inactive)
same,GI50,[49],> 100 µM (inactive)
same,GI50,[50],> 100 µM (inactive)
same,GI50,[51],> 100 µM (inactive)
same,GI50,[52],> 100 µM (inactive)
same,GI50,[53],> 100 µM (inactive)
same,GI50,[54],> 100 µM (inactive)
CC(C)(C)OC(=O)N(CCNS(=O)(=O)c1cccc2cnccc12)CCC(=O)ON1C(=O)CCC1=O,GI50,[1],> 100 µM (inactive)
same,GI50,[2],> 100 µM (inactive)
same,GI50,[3],> 100 µM (inactive)
same,GI50,[4],> 100 µM (inactive)
same,GI50,[5],> 100 µM (inactive)
same,GI50,[6],> 100 µM (inactive)
same,GI50,[7],> 100 µM (inactive)
same,GI50,[8],> 100 µM (inactive)
same,GI50,[9],> 100 µM (inactive)
same,GI50,[10],> 100 µM (inactive)
same,GI50,[55],> 100 µM (inactive)
same,GI50,[11],> 100 µM (inactive)
same,GI50,[13],6.52 µM (inactive)
same,GI50,[14],> 100 µM (inactive)
same,GI50,[16],> 100 µM (inactive)
same,GI50,[17],> 100 µM (inactive)
same,GI50,[18],> 100 µM (inactive)
same,GI50,[19],> 100 µM (inactive)
same,GI50,[20],> 100 µM (inactive)
same,GI50,[21],> 100 µM (inactive)
same,GI50,[22],> 100 µM (inactive)
same,GI50,[23],> 100 µM (inactive)
same,GI50,[24],> 100 µM
same,GI50,[25],> 100 µM (inactive)
same,GI50,[26],> 100 µM (inactive)
same,GI50,[27],> 100 µM (inactive)
same,GI50,[28],> 100 µM (inactive)
same,GI50,[29],10.4 µM (inactive)
same,GI50,[30],> 100 µM (inactive)
same,GI50,[31],> 100 µM (inactive)
same,GI50,[32],> 100 µM (inactive)
same,GI50,[33],> 100 µM (inactive)
same,GI50,[34],> 100 µM (inactive)
same,GI50,[35],> 100 µM (inactive)
same,GI50,[36],> 100 µM (inactive)
same,GI50,[37],> 100 µM (inactive)
same,GI50,[38],> 100 µM (inactive)
same,GI50,[39],> 100 µM (inactive)
same,GI50,[40],> 100 µM (inactive)
same,GI50,[41],> 100 µM (inactive)
same,GI50,[42],> 100 µM (inactive)
same,GI50,[43],> 100 µM (inactive)
same,GI50,[45],> 100 µM (inactive)
same,GI50,[46],> 100 µM (inactive)
same,GI50,[47],> 100 µM (inactive)
same,GI50,[48],> 100 µM (inactive)
same,GI50,[50],> 100 µM (inactive)
same,GI50,[51],> 100 µM (inactive)
same,GI50,[52],> 100 µM (inactive)
same,GI50,[53],> 100 µM (inactive)
same,GI50,[54],51.9 µM (inactive)
